Assay results as given in US11673892B2, “Bicyclic compounds for use as RIP1 kinase inhibitors” (Genentech, Inc., priority 2017, dated 2023).

Target: T1, human RIP1 kinase domain (2-375) (Homo sapiens, UniProt Q13546)
T1 construct: Purified human RIP1 kinase domain (2-375) (50 nM); made in house; host or cells: baculovirus-infected insect cells
T1 sequence (Q13546 2-375): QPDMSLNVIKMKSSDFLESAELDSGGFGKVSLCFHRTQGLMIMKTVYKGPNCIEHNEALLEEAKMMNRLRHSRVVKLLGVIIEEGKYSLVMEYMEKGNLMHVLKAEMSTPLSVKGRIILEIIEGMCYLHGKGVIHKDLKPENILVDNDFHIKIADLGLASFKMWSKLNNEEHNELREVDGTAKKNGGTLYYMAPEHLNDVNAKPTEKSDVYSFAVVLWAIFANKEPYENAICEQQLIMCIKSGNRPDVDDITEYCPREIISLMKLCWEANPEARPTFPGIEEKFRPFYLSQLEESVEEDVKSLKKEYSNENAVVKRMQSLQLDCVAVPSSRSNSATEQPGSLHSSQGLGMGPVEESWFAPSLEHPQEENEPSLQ
Assay: RIP1 kinase inhibition biochemical assay (Transcreener ADP, fluorescence polarization)
Conditions: Ki app (Morrison tight-binding fit); 50 nM enzyme, 50 uM ATP, 2 hours incubation
Experimental: RIP1 Kinase Inhibition Assays (Biochemical Assay)
The compounds of the present invention were tested for their capacity to inhibit RIP1K activity as described below.
The ability of the receptor interacting protein kinase (RIPK1) to catalyze the hydrolysis of adenosine-5′-triphosphate (ATP) is monitored using the Transcreener ADP (adenosine-5′-diphosphate) assay (BellBrook Labs). Purified human RIP1 kinase domain (2-375) (50 nM) derived from a baculovirus-infected insect cell expression system is incubated with test compounds for 2 hours in 50 mM Hepes buffer (pH 7.5) containing 30 mM MgCl2, 1 mM dithiothreitol, 50 uM ATP, 0.002% Brij-35, and 0.5% dimethyl sulfoxide (DMSO). Reactions are quenched by the addition of 1× Bell Brooks Stop buffer B (20 mM Hepes (ph7.5), 40 mM ethylenediaminetetraacetic acid and 0.02% Brij-35) containing an additional 12 mM EDTA and 55 ug/mL ADP2 antibody and 4 nM ADP-AlexaFluor® 633 tracer. The tracer bound to the antibody is displaced by the ADP generated during the RIP1K reaction, which causes a decrease in fluorescence polarization that is measured by laser excitation at 633 nm with a FP microplate reader M1000. Fractional activity was plotted against test article concentration. Using Genedata Screener software (Genedata; Basel, Switzerland), the data were fit to the tight-binding apparent inhibition constant (Ki^app) Morrison equation [Williams, J. W. and Morrison, J. F. (1979) The kinetics of reversible tight-binding inhibition. Methods Enzymol 63: 437-67]. The following equation was used to calculate fractional activity and Ki^app:
[formula] where [E]T and [I]T are the total concentrations of active enzyme and test article, respectively.
Exemplary compounds of the present invention are provided in Table 1 along with their physiochemical characterization and in vitro RIP1 kinase inhibitory activity data. “Method” in the first column of each table refers to the synthetic method(s) used to prepare each compound as shown in the Examples above. In certain examples, chiral column retention times (min) are provided for certain stereoisomers. Unless otherwise specified, the stereochemistry shown in each structure represents relative configuration of a single stereoisomer, and absolute configuration (i.e., “R” and/or “S”) is arbitrarily assigned. In some embodiments, where the Method is described to include the separation of stereoisomers, a single stereoisomer of a compound of Table 1 is provided.

Q: `Cn1cc(/C=C/c2nc3n(n2)[C@H](c2ccccc2)C[C@@H]3F)cn1` (single isomer, unassigned) [Example 49] was tested. Which Ki did it give?
A: The Ki was 1200 nM.

Q: With `CC1([C@@H](O)c2nc3n(n2)[C@H](c2ccccc2)C[C@@H]3F)CC1` (single isomer, unassigned) [Example 105] as the molecule, how does the Ki read?
A: The Ki was 350 nM.

Q: How did the Ki turn out when `Cc1ncnn1-c1nc2n(n1)[C@H](c1ccccc1)C[C@@H]2F` (single isomer, unassigned) [Example 74] was run?
A: The Ki was 70 nM.

Q: Which Ki does the source give for `COC[C@@H]1C[C@H]1c1nc2n(n1)[C@H](c1ccccc1)C[C@@H]2F` (racemic) [Example 24, (S,7S)-7-fluoro-5-phenyl-2-[rac-(1R,2R)-2-(methoxymethyl)cyclopropyl]-6,7-dihydro-5H-pyrrolo[1,2-b][1,2,4]triazole] here?
A: The Ki was 910 nM.

Q: Which Ki does the source give for `F[C@@H]1C[C@H]1C(F)(F)c1nc2n(n1)[C@H](c1ccccc1)C[C@@H]2F` (racemic) [Example 23, (5S,7S)-2-[difluoro-(rac-(1R,2R)-2-fluorocyclopropyl)methyl])-7-fluoro-5-phenyl-6,7-dihydro-5H-pyrrolo[1,2-b][1,2,4]triazole] here?
A: Its Ki is 4 nM.

Q: For `CC(=O)c1cnn(-c2nc3n(n2)[C@H](c2ccccc2)C[C@@H]3F)c1` (racemic) [Example 78, 1-[1-[rac-(5S,7S)-7-fluoro-5-phenyl-6,7-dihydro-5H-pyrrolo[1,2-b][1,2,4]triazol-2-yl]pyrazol-4-yl]ethanone], which Ki is on record?
A: The Ki was 130 nM.

Q: For `F[C@H]1C[C@@H](c2ccccc2)n2nc(C#CC3CC3)nc21` [Example 43, (5S,7S)-2-(2-cyclopropylethynyl)-7-fluoro-5-phenyl-6,7-dihydro-5H-pyrrolo[1,2-b][1,2,4]triazole], which Ki is on record?
A: Its Ki is 450 nM.

Q: `F[C@H]1C[C@@H](c2ccccc2)n2nc([C@H](F)C3CC3)nc21` (single isomer, unassigned) [Example 107] was tested. Which Ki did it give?
A: The Ki was 3.5 nM.

Q: Which Ki does the source give for `F[C@H]1C[C@@H](c2ccccc2)n2nc(-n3cc(Cl)cn3)nc21` [Example 60, (5S,7S)-2-(4-chloropyrazol-1-yl)-7-fluoro-phenyl-6,7-dihydro-5H-pyrrolo[1,2-b][1,2,4]triazole] here?
A: Its Ki is 4.5 nM.

Q: `OC(c1nc2n(n1)[C@H](c1ccccc1)C[C@@H]2F)[C@H]1C[C@@H]1F` (stereo partly drawn) [Example 106, [(1R,2S)-2-fluorocyclopropyl]-[(5S,7S)-7-fluoro-5-phenyl-6,7-dihydro-5H-pyrrolo[1,2-b][1,2,4]triazol-2-yl]methanol] was tested. Which Ki did it give?
A: Its Ki is 110 nM.

Q: How did the Ki turn out when `F[C@H]1C[C@@H](c2ccccc2)n2nc(-n3nnc4ccccc43)nc21` (single isomer, unassigned) [Example 81] was run?
A: The Ki was 5 nM.

Q: For `CC[C@H](F)c1nc2n(n1)[C@H](c1ccccc1)C[C@@H]2F` (racemic) [Example 8, rac-(5S,7S)-7-fluoro-5-phenyl-2-[rac-(1S)-1-fluoropropyl]-6,7-dihydro-5H-pyrrolo[1,2-b][1,2,4]triazole], which Ki is on record?
A: The Ki was 14 nM.

Q: `N#Cc1cnn(-c2nc3n(n2)[C@H](c2ccccc2)C[C@@H]3F)c1` (single isomer, unassigned) [Example 54] was tested. Which Ki did it give?
A: The Ki was 41 nM.

Q: With `F[C@H]1C[C@@H](c2ccccc2)n2nc(-c3cnoc3)nc21` (single isomer, unassigned) [Example 99] as the molecule, how does the Ki read?
A: Its Ki is 140 nM.

Q: How did the Ki turn out when `N#CC(F)c1nc2n(n1)[C@H](c1ccccc1)C[C@@H]2F` (stereo partly drawn) [Example 48, 2-fluoro-2-[(5S,7S)-7-fluoro-5-phenyl-6,7-dihydro-5H-pyrrolo[1,2-b][1,2,4]triazol-2-yl]acetonitrile] was run?
A: The Ki was 910 nM.

Q: For `CCc1nc2n(n1)[C@H](c1ccccc1)C[C@@H]2F` [Example 36, (5S,7S)-2-ethyl-7-fluoro-5-phenyl-6,7-dihydro-5H-pyrrolo[1,2-b][1,2,4]triazole], which Ki is on record?
A: Its Ki is 49 nM.

Q: Which Ki does the source give for `N#CC1(Cc2nc3n(n2)[C@H](c2ccccc2)C[C@@H]3F)CC1` (single isomer, unassigned) [Example 47] here?
A: Its Ki is 95 nM.

Q: With `Fc1ccccc1[C@@H]1C[C@H](F)c2nc(CC3CC3(F)F)nn21` (stereo partly drawn) [Example 112, (5S,7S)-2-[(2,2-difluorocyclopropyl)methyl]-7-fluoro-5-(2-fluorophenyl)-6,7-dihydro-5H-pyrrolo[1,2-b][1,2,4]triazole] as the molecule, how does the Ki read?
A: Its Ki is 4.5 nM.

Q: `Cc1cnn(-c2nc3n(n2)[C@H](c2ccccc2)C[C@@H]3F)c1` (single isomer, unassigned) [Example 25] was tested. Which Ki did it give?
A: The Ki was 17 nM.

Q: `C[C@H]1C[C@@H]1c1nc2n(n1)[C@H](c1ccccc1)C[C@@H]2F` (single isomer, unassigned) [Example 95] was tested. Which Ki did it give?
A: Its Ki is 39 nM.

Q: For `COc1cnn(-c2nc3n(n2)[C@H](c2ccccc2)C[C@@H]3F)c1` (single isomer, unassigned) [Example 57], which Ki is on record?
A: The Ki was 130 nM.

Q: `N#CCc1nc2n(n1)[C@H](c1ccccc1)C[C@@H]2F` (racemic) [Example 102, 2-[rac-(5S,7S)-7-fluoro-5-phenyl-6,7-dihydro-5H-pyrrolo[1,2-b][1,2,4]triazol-2-yl]acetonitrile] was tested. Which Ki did it give?
A: The Ki was 730 nM.

Q: Which Ki does the source give for `CC#Cc1nc2n(n1)[C@H](c1ccccc1)C[C@@H]2F` [Example 44, (5S,7S)-7-fluoro-5-phenyl-2-prop-1-ynyl-6,7-dihydro-5H-pyrrolo[1,2-b][1,2,4]triazole] here?
A: The Ki was 890 nM.

Q: With `F[C@H]1C[C@@H](c2ccccc2)n2nc(-n3cnc(C(F)(F)F)c3)nc21` (single isomer, unassigned) [Example 62] as the molecule, how does the Ki read?
A: Its Ki is 160 nM.

Q: Which Ki does the source give for `F[C@H]1C[C@@H](c2ccccc2)n2nc(-n3ccnc3Cl)nc21` (single isomer, unassigned) [Example 69] here?
A: Its Ki is 86 nM.

Q: With `Cn1ccn(-c2nc3n(n2)[C@H](c2ccccc2)C[C@@H]3F)c1=O` (single isomer, unassigned) [Example 71] as the molecule, how does the Ki read?
A: The Ki was 820 nM.

Q: How did the Ki turn out when `N#CC1CC(=Cc2nc3n(n2)[C@H](c2ccccc2)C[C@@H]3F)C1` (mixture of isomers) [Example 55, 3-[[rac-(5S,7S)-7-fluoro-5-phenyl-6,7-dihydro-5H-pyrrolo[1,2-b][1,2,4]triazol-2-yl]methylene]cyclobutanecarbonitrile] was run?
A: Its Ki is 130 nM.

Q: Which Ki does the source give for `N#C[C@H]1C[C@@H]1C(F)(F)c1nc2n(n1)[C@H](c1ccccc1)C[C@@H]2F` (mixture of isomers) [Example 113, rac-(1S,2S)-2-[difluoro-[(5S,7S)-7-fluoro-5-phenyl-6,7-dihydro-5H-pyrrolo[1,2-b][1,2,4]triazol-2-yl]methyl]cyclopropane carbonitrile] here?
A: The Ki was 4.8 nM.

Q: For `F[C@H]1C[C@@H](c2ccccc2)n2nc(-n3cncn3)nc21` (single isomer, unassigned) [Example 68], which Ki is on record?
A: Its Ki is 190 nM.

Q: How did the Ki turn out when `F[C@H]1C[C@@H](c2ccccc2)n2nc(-n3cccn3)nc21` (single isomer, unassigned) [Example 31] was run?
A: The Ki was 160 nM.

Q: For `F[C@H]1C[C@@H](c2ccccc2)n2nc([C@H](F)C34CC(C3)C4)nc21` (single isomer, unassigned) [Example 45], which Ki is on record?
A: Its Ki is 230 nM.

Q: Which Ki does the source give for `F[C@H]1C[C@@H](c2ccccc2)n2nc(CC3CC3(F)F)nc21` (stereo partly drawn) [Example 20, (5S,7S)-2-[(2,2-difluorocyclopropyl)methyl]-7-fluoro-5-phenyl-6,7-dihydro-5H-pyrrolo[1,2-b][1,2,4]triazole] here?
A: Its Ki is 4 nM.

Q: For `CCC(O)c1nc2n(n1)[C@H](c1ccccc1)C[C@@H]2F` (some centres unmarked) [Example 1], which Ki is on record?
A: Its Ki is 406 nM.

Q: How did the Ki turn out when `Cc1nccn1-c1nc2n(n1)[C@H](c1ccccc1)C[C@@H]2F` (single isomer, unassigned) [Example 67] was run?
A: The Ki was 890 nM.

Q: How did the Ki turn out when `CCC(F)c1nc2n(n1)C(c1ccccc1)CC2F` (stereo not drawn) [Example 3, Cis-7-fluor-2-(1-fluoropropyl)-5-phenyl-6,7-dihydro-5H-pyrrolo[1,2-b][1,2,4]triazole] was run?
A: Its Ki is 51 nM.
